The values that follow come from patent US20230416291A1, “HIGH-PURITY ß-NICOTINAMIDE MONONUCLEOTIDE (NMN) AND METHOD FOR PRODUCING SAME” (MIRAILAB BIOSCIENCE INC., priority 2020, published 2023).

The structures appear in SMILES notation. Where only a bound is given, the exact number is not on record here.

Series [1] is described as follows: Stability of high-purity βNMN on preservation, purity by LC-UV area normalization. Particulars: for Purity, Average value: three samples. The series is classed as physicochemical. As to the method:
In the area normalization method based on LC-UV, a NMN sample is dissolved in an appropriate amount of water and subjected to LC-UV measurement at a detection wavelength of 266 nm using an apparatus, for example, LC-30AD (manufactured by Shimadzu Corp.). The ratio (%) of the area of the main component to the total area of chromatogram peaks of the obtained sample can be regarded as the purity (%) of βNMN. In the area normalization method based on LC-UV, the high-purity βNMN obtained in the section (5) was dissolved in an appropriate amount of water and subjected to LC-UV measurement under the following conditions. • Apparatus name: LC-30AD (manufactured by Shimadzu Corp.) • Detection wavelength: 266 nm The ratio (%) of the area of the main component to the total area of chromatogram peaks of the obtained sample was regarded as the purity (%) of βNMN. As a result, the purity of the high-purity βNMN obtained in the section (5) was 99.2%. The high-purity βNMN obtained in the section (5) was preserved at 4° C., 25° C., or 40° C. and examined for its stability. Each sample was provided as three samples per condition. The purity of βNMN in each sample during preservation, 1 month later, 2 months later, and 3 months later was measured by the area normalization method based on LC-UV.

The nature of series [2]: Stability test on NMN produced by a conventional method (Comparative Examples). The series is classed as physicochemical. An excerpt:
Results of a stability test on NMN produced by a conventional method (method involving neither the step IV nor the step V according to the present invention) are shown as Comparative Examples in Table 2.

With `NC(=O)c1ccc[n+]([C@@H]2O[C@H](COP(=O)([O-])O)[C@@H](O)[C@H]2O)c1` [high-purity βNMN, β-nicotinamide mononucleotide], in series [1] (for 3 months at any temperature of 4° C., 25° C., and 40° C.), the “Purity maintained on preservation” value is on record as at least 99%. Moreover, the “Purity, Average value” in series [1] (preserved at 4° C., 1 month later) worked out at 99.64%; in series [1] (preserved at 4° C., 2 months later), 99.51%; in series [1] (preserved at 4° C., 3 months later) it was 99.66%; in series [1] (preserved at 4° C., During preservation) it was 99.69%; in series [1] (preserved at 25° C., 1 month later), 99.26%; in series [1] (preserved at 25° C., 2 months later) it was 99.45%. The “Purity, Average value” in series [1] (preserved at 25° C., 3 months later) was determined as 99.57%; in series [1] (preserved at 25° C., During preservation), 99.69%; in series [1] (preserved at 40° C., 1 month later), 99.51%; in series [1] (preserved at 40° C., 2 months later) it was 99.27%; in series [1] (preserved at 40° C., 3 months later), 99.35%; in series [1] (preserved at 40° C., During preservation), 99.69%.
`NC(=O)c1ccc[n+]([C@@H]2O[C@H](COP(=O)([O-])O)[C@@H](O)[C@H]2O)c1` [NMN produced by a conventional method, nicotinamide mononucleotide]: the Purity in series [2] (4° C., 1 day later) is 97.92%; in series [2] (4° C., 2 days later) it was 97.78%; in series [2] (4° C., 3 days later), 97.60%; in series [2] (4° C., 7 days later), 97.57%; in series [2] (4° C., 15 days later), 97.54%; in series [2] (4° C., 30 days later), 97.26%. Besides, the Purity worked out at 97.94% in series [2] (4° C., At start of preservation); 97.11% in series [2] (25° C., 1 day later); 96.04% in series [2] (25° C., 2 days later); 95.98% in series [2] (25° C., 3 days later); 90.55% in series [2] (25° C., 7 days later); 81.74% in series [2] (25° C., 15 days later). Besides, the Purity in series [2] (25° C., 30 days later) worked out at 65.66%; in series [2] (25° C., At start of preservation), 97.94%. Besides, the Stability in words result in series [2] (preserved at 4° C. for 30 days) is reported as “able to maintain the purity obtained at the start of preservation for 30 days”.
